Laboratory results from ChEMBL document CHEMBL4184314, “Synthesis of new 4-aryloxy-N-arylanilines and their inhibitory activities against succinate-cytochrome c reductase” (Bioorg Med Chem Lett, 2018).

Columns and labels:
[1] = Inhibition of porcine succinate-cytochrome c reductase using succinate and cytochrome c as substrate by spectrophotometric analysis; design: species or system Sus scrofa
Sus scrofa [2] = species on record: Sus scrofa; assay: Inhibition of porcine succinate-cytochrome c reductase complex 2 at 10 uM using succinate and dichlorophenolindophenol as substrate by spectrophotometric analysis relative to control
Sus scrofa [3] = species on record: Sus scrofa; assay: Inhibition of porcine succinate-cytochrome c reductase at 10 uM using succinate and cytochrome c as substrate by spectrophotometric analysis relative to control
Sus scrofa [4] = species on record: Sus scrofa; assay: Inhibition of porcine succinate-cytochrome c reductase complex 3 at 10 uM using decylubiquinol and cytochrome c as substrate by spectrophotometric analysis relative to control

SMILES	IC50 [1] [nM]	inhibition (Sus scrofa [2]) [%]	inhibition (Sus scrofa [3]) [%]	inhibition (Sus scrofa [4]) [%]
Clc1ccc(Nc2ccc(Oc3ccccc3)cc2)cc1	464	–	–	–
Fc1cccc(Oc2ccc(Nc3ccccc3)cc2)c1F	1450	–	–	–
c1ccc(COc2ccc(Oc3ccc(Nc4ccccc4)cc3)cc2)cc1	> 10000	–	–	–
Fc1ccc(Br)cc1Oc1ccc(Nc2ccccc2)cc1	> 10000	–	–	–
Clc1cc(Cl)c(Oc2c(Cl)cc(Nc3ccccc3)cc2Cl)c(Cl)c1	21	37	89	13
Clc1ccc(Oc2c(Cl)cc(Nc3ccccc3)cc2Cl)c(Cl)c1	41	–	–	–
CO/C=C(\C(=O)OC)c1ccccc1Oc1cc(Oc2ccccc2C#N)ncn1 [Azoxystrobin]	287	23	99	92
Fc1cccc(Nc2ccc(Oc3ccccc3)cc2)c1	723	–	–	–
CC(C)(C)c1ccc(Nc2ccc(Oc3ccccc3)cc2)cc1	> 10000	–	–	–
Fc1ccccc1Oc1ccc(Nc2ccccc2)cc1	> 10000	–	–	–
Clc1cc(Nc2ccccc2)cc(Cl)c1Oc1ccc2ccccc2c1	30	42	78	15
Clc1ccc(Oc2ccc(Nc3ccccc3)cc2)c(Cl)c1	172	–	–	–
Fc1ccc(Nc2ccc(Oc3ccccc3)cc2)cc1	> 10000	–	–	–
FC(F)(F)c1ccc(Nc2ccc(Oc3ccccc3)cc2)cc1	201	–	–	–
Cc1cccc(Nc2ccc(Oc3ccccc3)cc2)c1	> 10000	–	–	–
Brc1ccccc1Oc1ccc(Nc2ccccc2)cc1	> 10000	–	–	–
Cc1ccc(Nc2ccc(Oc3ccccc3)cc2)cc1	> 10000	–	–	–
N#Cc1ccccc1Oc1ccc(Nc2ccccc2)cc1	> 10000	–	–	–
c1ccc(Nc2ccc(Oc3ccccc3)cc2)cc1	> 10000	–	–	–
Clc1cccc(Nc2ccc(Oc3ccccc3)cc2)c1	> 10000	–	–	–
Cc1ccccc1Nc1ccc(Oc2ccccc2)cc1	> 10000	–	–	–
Brc1cc(Nc2ccccc2)ccc1Oc1ccccc1	323	–	–	–
CC(C)CC(C)c1sccc1NC(=O)c1cn(C)nc1C(F)(F)F (stereo not drawn) [PENTHIOPYRAD]	1320	90	82	< 10
COc1ccc(Oc2ccc(Nc3ccccc3)cc2)cc1	> 10000	–	–	–
FC(F)(F)c1cccc(Nc2ccc(Oc3ccccc3)cc2)c1	362	–	–	–
Clc1ccc(Oc2ccc(Nc3ccccc3)cc2Cl)c(Cl)c1	43	–	–	–
